Source: the Kinase Knowledgebase extract (Sharma et al. 2016)

Biological target: MAPK14 (human) (UniProt Q16539)
Assay: Inhibition of MAPK14 Kinase Activity

MAPK14 (human), sequence (Q16539 whole entry, looked up): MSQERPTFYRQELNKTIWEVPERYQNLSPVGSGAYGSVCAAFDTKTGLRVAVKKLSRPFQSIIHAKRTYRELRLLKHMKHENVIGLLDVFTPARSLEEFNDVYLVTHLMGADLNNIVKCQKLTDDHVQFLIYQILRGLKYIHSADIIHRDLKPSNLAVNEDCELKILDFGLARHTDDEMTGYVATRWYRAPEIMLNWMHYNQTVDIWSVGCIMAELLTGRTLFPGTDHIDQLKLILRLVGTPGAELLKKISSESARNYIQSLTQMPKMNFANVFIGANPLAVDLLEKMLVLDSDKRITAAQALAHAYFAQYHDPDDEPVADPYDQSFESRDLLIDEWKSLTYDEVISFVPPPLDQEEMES

IC50 [µM] | SMILES
≤ 1 | Cc1ccc(Nc2c(C#N)sc3c2ccc(=O)n3CC2CC2)cc1C
≤ 1 | O=C(c1sc2c(ccc(=O)n2-c2ccccc2)c1Nc1cccc(Cl)c1)N1CCCC1
≤ 1 | C[S+]([O-])c1ccc(-n2c(=O)ccc3c(Nc4ccccc4C#N)c(C(N)=O)sc32)cc1 (stereo not given)
≤ 1 | CCOC(=O)c1sc2c(ccc(=O)n2-c2ccc(NS(C)(=O)=O)cc2)c1Nc1ccc(F)cc1F
≤ 1 | Cc1cc(Nc2c(C(N)=O)sc3c2ccc(=O)n3C2CC2)ccc1F
≤ 1 | CCOC(=O)c1sc2c(ccc(=O)n2-c2ccsc2)c1Nc1ccccc1
≤ 1 | CCOC(=O)c1sc2c(ccc(=O)n2-c2ccccc2)c1Nc1cccc(OC(F)(F)F)c1
≤ 1 | Cc1cccc(Nc2c(C(N)=O)sc3c2ccc(=O)n3-c2ccccc2)c1
≤ 1 | NC(=O)c1sc2c(ccc(=O)n2Cc2ccccc2)c1Nc1ccccc1
≤ 1 | Cc1cc(Nc2c(C(=O)N(C)O)sc3c2ccc(=O)n3-c2ccccc2)ccc1F
≤ 1 | Cc1cccc(Nc2c(C(N)=O)sc3c2ccc(=O)n3-c2ccc(S(C)(=O)=O)cc2)c1
≤ 1 | O=C(NCCN1CCCCC1)c1sc2c(ccc(=O)n2-c2ccccc2)c1Nc1ccc(F)cc1F
≤ 1 | O=C(O)c1sc2c(ccc(=O)n2-c2ccccc2)c1Nc1ccccc1
≤ 1 | NC(=O)c1sc2c(ccc(=O)n2CC2CC2)c1Nc1ccccc1
≤ 1 | CCOC(=O)c1sc2c(ccc(=O)n2-c2cccc(C)c2)c1Nc1ccc(F)c(C)c1
≤ 1 | N#Cc1sc2c(ccc(=O)n2-c2ccccc2)c1Nc1cccc(Br)c1
≤ 1 | Cc1ccccc1-n1c(=O)ccc2c(Nc3ccc(F)cc3F)c(C#N)sc21
≤ 1 | CCOC(=O)c1sc2c(ccc(=O)n2-c2ccc(CN3CCCC3)cc2)c1Nc1ccccc1
≤ 1 | CN(C)c1ccc(-n2c(=O)ccc3c(Nc4ccccc4)c(C(=O)N4CCCC4)sc32)cc1
≤ 1 | CCOC(=O)c1sc2c(ccc(=O)n2-c2ccccc2)c1Nc1cccc(C)c1
≤ 1 | N#Cc1sc2c(ccc(=O)n2CC2CC2)c1Nc1ccc(F)c(Cl)c1
≤ 1 | CCOC(=O)c1sc2c(ccc(=O)n2-c2ccc3[nH]ccc3c2)c1Nc1ccccc1
≤ 1 | CN(C)CCN(C)C(=O)c1sc2c(ccc(=O)n2-c2ccccc2)c1Nc1ccccc1
≤ 1 | CCOC(=O)c1sc2c(ccc(=O)n2-c2ccccc2)c1Nc1cccc(C)c1C#N
≤ 1 | NC(=O)c1sc2c(ccc(=O)n2-c2ccccc2)c1Nc1cccc(SC(F)(F)F)c1
≤ 1 | O=C(O)c1sc2c(ccc(=O)n2-c2ccc3[nH]ccc3c2)c1Nc1ccccc1
≤ 1 | N#Cc1sc2c(ccc(=O)n2-c2ccccc2)c1Nc1cccc(O)c1

IC50 [µM] | SMILES
≤ 1 | N#Cc1sc2c(ccc(=O)n2-c2ccccc2)c1Nc1ccccc1
≤ 1 | NC(=O)c1sc2c(ccc(=O)n2-c2ccccc2)c1Nc1cccc(O)c1
≤ 1 | Cc1ccc(Nc2c(C(N)=O)sc3c2ccc(=O)n3CC2CC2)cc1C
≤ 1 | N#Cc1sc2c(ccc(=O)n2-c2ccccc2)c1Nc1ccccc1OC(F)(F)F
≤ 1 | CCOC(=O)c1sc2c(ccc(=O)n2-c2ccccc2)c1Nc1cccc(C#N)c1
≤ 1 | Cc1cccc(Nc2c(C(=N)N)sc3c2ccc(=O)n3-c2ccccc2)c1
≤ 1 | CSc1cccc(Nc2c(C(N)=O)sc3c2ccc(=O)n3-c2ccccc2)c1
≤ 1 | N#Cc1cccc(Nc2c(C(N)=O)sc3c2ccc(=O)n3-c2ccccc2)c1
≤ 1 | CCOC(=O)c1sc2c(ccc(=O)n2-c2ccccc2)c1Nc1ccccc1OC
≤ 1 | CCOC(=O)c1sc2c(ccc(=O)n2CCOCCOC)c1Nc1ccccc1
≤ 1 | CON(C)C(=O)c1sc2c(ccc(=O)n2CC2CC2)c1Nc1ccccc1
≤ 1 | NC(=O)c1sc2c(ccc(=O)n2-c2ccccc2Cl)c1Nc1ccccc1
≤ 1 | O=c1ccc2c(Nc3cccc(Cl)c3)csc2n1-c1ccccc1
≤ 1 | CC(=O)c1ccc(-n2c(=O)ccc3c(Nc4cccc(Cl)c4)c(C#N)sc32)cc1
≤ 1 | NC(=O)c1sc2c(ccc(=O)n2-c2cccnc2)c1Nc1ccccc1
≤ 1 | Cc1cccc(Nc2c(C(N)=O)sc3c2ccc(=O)n3-c2ccccc2)n1
≤ 1 | CCOC(=O)c1sc2c(ccc(=O)n2-c2ccccc2)c1Nc1ccc(F)c(Cl)c1
≤ 1 | Cc1ccc(-n2c(=O)ccc3c(Nc4ccc(F)c(C)c4)c(C(N)=O)sc32)cc1
≤ 1 | CCOC(=O)c1sc2c(ccc(=O)n2-c2ccccc2)c1Nc1cccc(Cl)c1
≤ 1 | N#Cc1sc2c(ccc(=O)n2-c2ccccc2)c1Nc1ccccc1OC(F)F
≤ 1 | Cc1ccc(Nc2c(C(N)=O)sc3c2ccc(=O)n3-c2ccccc2)cc1Br
≤ 1 | Cc1cccc(Nc2c(C#N)sc3c2ccc(=O)n3CC2CC2)c1
≤ 1 | CCOC(=O)c1sc2c(ccc(=O)n2CC2CCCCO2)c1Nc1ccc(F)cc1F (stereo not given)
≤ 1 | N#Cc1cccc(Nc2c(C(=O)N3CCCC3)sc3c2ccc(=O)n3-c2ccccc2)c1
≤ 1 | Cc1ccc(Nc2c(C#N)sc3c2ccc(=O)n3CC2CC2)c(C)c1
≤ 1 | NNC(=O)c1sc2c(ccc(=O)n2-c2ccccc2)c1Nc1ccccc1
≤ 1 | NC(=O)c1sc2c(ccc(=O)n2-c2ccccc2)c1Nc1cccc(Cl)n1

IC50 [µM] | SMILES
≤ 1 | N#Cc1sc2c(ccc(=O)n2-c2ccc(OC[C@H](O)CO)cc2)c1Nc1ccc(F)cc1F
≤ 1 | Cc1cc(Nc2c(C#N)sc3c2ccc(=O)n3C2CC2)ccc1F
≤ 1 | C=Cc1ccc(-n2c(=O)ccc3c(Nc4ccccc4)c(C(=O)OCC)sc32)cc1
≤ 1 | CCOC(=O)c1sc2c(ccc(=O)n2CC2CC2)c1Nc1cccc(C)c1C#N
≤ 1 | CCOC(=O)c1sc2c(ccc(=O)n2-c2ccc(OCCn3ccnc3C)cc2)c1Nc1ccc(F)cc1F
≤ 1 | N#Cc1sc2c(ccc(=O)n2-c2ccccc2)c1Nc1cccc(OC(F)(F)F)c1
≤ 1 | CN1CCN(CCCNC(=O)c2sc3c(ccc(=O)n3-c3ccccc3)c2Nc2ccccc2)CC1
≤ 1 | N#Cc1sc2c(ccc(=O)n2-c2ccccc2)c1Nc1cccc([N+](=O)[O-])c1
≤ 1 | Cc1nccn1CCOc1ccc(-n2c(=O)ccc3c(Nc4ccc(F)cc4F)c(C(N)=O)sc32)cc1
≤ 1 | CCOC(=O)c1sc2c(ccc(=O)n2CC2CC2)c1Nc1ccccc1
≤ 1 | CCN(CC)C(=N)c1sc2c(ccc(=O)n2-c2ccccc2)c1Nc1cccc(C)c1
≤ 1 | Cc1cc(Nc2c(C#N)sc3c2ccc(=O)n3-c2ccccc2Cl)ccc1F
≤ 1 | O=C(c1sc2c(ccc(=O)n2-c2ccccc2)c1Nc1ccccc1)N1CCCC1
≤ 1 | CCOC(=O)c1sc2c(ccc(=O)n2Cc2ccccc2)c1Nc1ccccc1
≤ 1 | CCOC(=O)c1sc2c(c(C)cc(=O)n2-c2ccccc2)c1Nc1ccccc1
≤ 1 | O=C(c1sc2c(ccc(=O)n2-c2ccccc2)c1Nc1ccc(F)cc1F)N1CCOCC1
≤ 1 | Cc1cccc(Nc2c(C(N)=O)sc3c2ccc(=O)n3CC2CC2)c1C#N
≤ 1 | N#Cc1sc2c(ccc(=O)n2-c2ccccc2Cl)c1Nc1ccccc1
≤ 1 | CCOC(=O)c1sc2c(ccc(=O)n2-c2ccc(S(C)(=O)=O)cc2)c1Nc1cccc(C)c1
≤ 1 | NS(=O)(=O)c1sc2c(ccc(=O)n2-c2ccccc2)c1Nc1ccc(F)cc1F
≤ 1 | Cc1cccc(Nc2c(C(N)=O)sc3c2ccc(=O)n3-c2ccccc2Cl)c1
≤ 1 | NC(=O)c1sc2c(ccc(=O)n2-c2ccsc2)c1Nc1ccccc1
≤ 1 | NC(=O)c1sc2c(ccc(=O)n2-c2ccccc2)c1Nc1cccc(C(F)(F)F)c1
≤ 1 | O=C(c1sc2c(ccc(=O)n2-c2ccccc2)c1Nc1ccc(F)cc1F)N1CCCC1
≤ 1 | CCNC(=O)c1sc2c(ccc(=O)n2-c2ccccc2)c1Nc1ccccc1
≤ 1 | CCN1CCN(C(=O)c2sc3c(ccc(=O)n3-c3ccccc3)c2Nc2ccccc2)CC1
≤ 1 | NC(=O)c1sc2c(ccc(=O)n2-c2ccccc2)c1Nc1ccc(F)c(Cl)c1

IC50 [µM] | SMILES
≤ 1 | CCOC(=O)c1sc2c(ccc(=O)n2-c2ccccc2)c1Nc1ccc(F)cc1
≤ 1 | CN(C)C(=O)c1sc2c(ccc(=O)n2-c2ccccc2)c1Nc1ccccc1
≤ 1 | CCOC(=O)c1sc2c(ccc(=O)n2-c2cccc(C)c2)c1Nc1cccc(C)c1
≤ 1 | CCOC(=O)c1sc2c(ccc(=O)n2-c2ccc(Cl)cc2)c1Nc1ccc(F)c(C)c1
≤ 1 | N#Cc1sc2c(ccc(=O)n2-c2cccnc2)c1Nc1ccccc1
≤ 1 | NC(=O)c1sc2c(ccc(=O)n2-c2ccccc2)c1Nc1cccc(OC(F)(F)F)c1
≤ 1 | Cc1cccc(Nc2c(C#N)sc3c2ccc(=O)n3-c2ccccc2)c1
≤ 1 | Cc1cccc(Nc2c(C(N)=O)sc3c2ccc(=O)n3CC2CC2)c1
≤ 1 | O=C(NCCCn1ccnc1)c1sc2c(ccc(=O)n2-c2ccccc2)c1Nc1ccccc1
≤ 1 | CCOC(=O)c1sc2c(ccc(=O)n2CC2CC2)c1Nc1cccc(Br)c1
≤ 1 | CCOC(=O)c1sc2c(ccc(=O)n2-c2ccc(F)cc2)c1Nc1ccc(F)c(C)c1
≤ 1 | CCOC(=O)c1sc2c(ccc(=O)n2-c2ccc(SC)cc2)c1Nc1ccccc1C#N
≤ 1 | COC(=O)NNC(=O)c1sc2c(ccc(=O)n2-c2ccccc2)c1Nc1ccc(F)cc1F
≤ 1 | N#Cc1ccccc1Nc1c(C(N)=O)sc2c1ccc(=O)n2-c1ccsc1
≤ 1 | N#Cc1sc2c(ccc(=O)n2-c2ccccc2)c1Nc1cccc(SC(F)(F)F)c1
≤ 1 | N#Cc1ccccc1Nc1c(C(N)=O)sc2c1ccc(=O)n2-c1ccc2[nH]ccc2c1
≤ 1 | CCOC(=O)c1sc2c(ccc(=O)n2-c2ccccc2)c1Nc1ccc(Cl)cc1
≤ 1 | Cc1cccc(Nc2c(C(N)=O)sc3c2ccc(=O)n3-c2ccccc2C)c1
≤ 1 | CCOC(=O)c1sc2c(ccc(=O)n2-c2ccccc2)c1Nc1ccc(C#N)cc1
≤ 1 | CC(C)(CO)NC(=O)c1sc2c(ccc(=O)n2-c2ccccc2)c1Nc1ccccc1
≤ 1 | CC(=O)c1sc2c(ccc(=O)n2-c2ccccc2)c1Nc1ccccc1
≤ 1 | Cc1ccc(-n2c(=O)ccc3c(Nc4cccc(C)c4)c(C(N)=O)sc32)cc1
≤ 1 | Cc1ccccc1Nc1c(C#N)sc2c1ccc(=O)n2-c1ccccc1
≤ 1 | N#Cc1sc2c(ccc(=O)n2-c2ccccc2)c1Nc1cccc(Cl)n1
